Reference: US9468209B2, “Method for eradicating weeds with derivatives of 3-acetyl-5-sec-butyl-4-hydroxy-3-pyrrolin-2-one” (priority 2012, dated 2016)

Tests used:
Assay in all cases: Leaf piece damage test
Format in all cases: in vivo
Design in all cases: key: 4: The leaf completely dead; 3: Two third of the leaf withered; 2: One half of the leaf withered; 1: Only edge of the leaf withered; 0: Not damage at all
Conditions in all cases: 50 μg/mL, 4 days
Rumex dentatus = system: Rumex dentatus
Method: (§1) Compounds 7, 14, 15, 16, 40, 45, 48 and 53 were dissolved individually in small amount of methanol, and diluted with distilled water to concentration of 50 μg/mL. Methanol water solution and pure water were used as control. A piece of 5 mm leaf was taken from the second leaf of weed sample and was treated with the solution three times. 5 pieces of the leaf were prepared for each treatment. The damage data were collected 4 days later. The measurement of damage level is described in the Table 9.
(§2) The measurement of the plant damage was calculated by the formula: Damage Index=Σ(damage level×number of plants)×100/4/number of plants in each treatment.

[1] = system: Aster ageratoides var. scaberulus
Method: as §1, §2

Fimbristylis miliacea = system: Fimbristylis miliacea
Method: as §1, §2

Rumex japonicus = system: Rumex japonicus
Method: as §1, §2

Crisium setosum = system: Crisium setosum
Method: as §1, §2

[2] = system: Pigweed (Amaranthus spinosus)
Method: as §1, §2

Cyperus rotundus = system: Cyperus rotundus
Method: as §1, §2

[3] = system: Japanese false bindweed (Calystegia hederacea)
Method: as §1, §2

Eupatorium adenophorum = system: Eupatorium adenophorum
Method: as §1, §2

[4] = system: Green foxtail (Setaria viridis)
Method: as §1, §2

Leptochloa chinensis = system: Leptochloa chinensis
Method: as §1, §2

Commelina communis = system: Commelina communis
Method: as §1, §2

Polygonum perfoliatum = system: Polygonum perfoliatum
Method: as §1, §2

Goose grass = system: Goose grass
Method: as §1, §2

[5] = system: Redroot pigweed (Amaramthus retroflexus)
Method: as §1, §2

Erigeron annuus = system: Erigeron annuus
Method: as §1, §2

Xanthium sibiricum = system: Xanthium sibiricum
Method: as §1, §2

Polygonum lapathifolium = system: Polygonum lapathifolium
Method: as §1, §2

Mosla scabra = system: Mosla scabra
Method: as §1, §2

Acalypha australis = system: Acalypha australis
Method: as §1, §2

Lamium amplexicaule = system: Lamium amplexicaule
Method: as §1, §2

Wild oats = system: Wild oats
Method: as §1, §2

CCCCC1NC(=O)C(C(C)=O)=C1O (stereo not shown) [Compound 14]
Damage level (Rumex dentatus): 2
Damage level [1]: 3
Damage level (Fimbristylis miliacea): 2
Damage level (Rumex japonicus): 1
Damage level (Crisium setosum): 3
Damage level [2]: 2
Damage level (Cyperus rotundus): 2
Damage level [3]: 3
Damage level (Eupatorium adenophorum): 3
Damage level [4]: 3
Damage level (Leptochloa chinensis): 4
Damage level (Commelina communis): 2
Damage level (Polygonum perfoliatum): 2
Damage level (Goose grass): 3
Damage level [5]: 2
Damage level (Erigeron annuus): 3
Damage level (Xanthium sibiricum): 2
Damage level (Polygonum lapathifolium): 2
Damage level (Mosla scabra): 2
Damage level (Acalypha australis): 2
Damage level (Lamium amplexicaule): 2
Damage level (Wild oats): 3

CCC(C)C1NC(=O)C(C(=O)CCF)=C1O (stereo not shown) [Compound 44]
Damage level (Rumex dentatus): 3
Damage level [1]: 4
Damage level (Fimbristylis miliacea): 2
Damage level (Rumex japonicus): 3
Damage level (Crisium setosum): 3
Damage level [2]: 3
Damage level (Cyperus rotundus): 2
Damage level [3]: 4
Damage level (Eupatorium adenophorum): 4
Damage level [4]: 4
Damage level (Leptochloa chinensis): 4
Damage level (Commelina communis): 2
Damage level (Polygonum perfoliatum): 3
Damage level (Goose grass): 3
Damage level [5]: 2
Damage level (Erigeron annuus): 4
Damage level (Xanthium sibiricum): 2
Damage level (Polygonum lapathifolium): 2
Damage level (Mosla scabra): 2
Damage level (Acalypha australis): 3
Damage level (Lamium amplexicaule): 3
Damage level (Wild oats): 3

CCCCCCC1NC(=O)C(C(C)=O)=C1O (stereo not shown) [Compound 16]
Damage level (Rumex dentatus): 2
Damage level [1]: 4
Damage level (Fimbristylis miliacea): 3
Damage level (Rumex japonicus): 2
Damage level (Crisium setosum): 3
Damage level [2]: 2
Damage level (Cyperus rotundus): 2
Damage level [3]: 4
Damage level (Eupatorium adenophorum): 4
Damage level [4]: 3
Damage level (Leptochloa chinensis): 4
Damage level (Commelina communis): 3
Damage level (Polygonum perfoliatum): 3
Damage level (Goose grass): 3
Damage level [5]: 3
Damage level (Erigeron annuus): 3
Damage level (Xanthium sibiricum): 2
Damage level (Polygonum lapathifolium): 2
Damage level (Mosla scabra): 2
Damage level (Acalypha australis): 2
Damage level (Lamium amplexicaule): 2
Damage level (Wild oats): 3

CCC(C)C1NC(=O)C(C(=O)CCc2cc(Cl)cc(Cl)c2)=C1O (stereo not shown) [Compound 48]
Damage level (Rumex dentatus): 3
Damage level [1]: 4
Damage level (Fimbristylis miliacea): 3
Damage level (Rumex japonicus): 2
Damage level (Crisium setosum): 4
Damage level [2]: 3
Damage level (Cyperus rotundus): 2
Damage level [3]: 4
Damage level (Eupatorium adenophorum): 4
Damage level [4]: 4
Damage level (Leptochloa chinensis): 4
Damage level (Commelina communis): 4
Damage level (Polygonum perfoliatum): 3
Damage level (Goose grass): 3
Damage level [5]: 2
Damage level (Erigeron annuus): 4
Damage level (Xanthium sibiricum): 3
Damage level (Polygonum lapathifolium): 2
Damage level (Mosla scabra): 2
Damage level (Acalypha australis): 3
Damage level (Lamium amplexicaule): 2
Damage level (Wild oats): 3

CCCCCC1NC(=O)C(C(C)=O)=C1O (stereo not shown) [Compound 15]
Damage level (Rumex dentatus): 2
Damage level [1]: 3
Damage level (Fimbristylis miliacea): 2
Damage level (Rumex japonicus): 2
Damage level (Crisium setosum): 3
Damage level [2]: 2
Damage level (Cyperus rotundus): 2
Damage level [3]: 3
Damage level (Eupatorium adenophorum): 4
Damage level [4]: 4
Damage level (Leptochloa chinensis): 4
Damage level (Commelina communis): 2
Damage level (Polygonum perfoliatum): 2
Damage level (Goose grass): 3
Damage level [5]: 2
Damage level (Erigeron annuus): 4
Damage level (Xanthium sibiricum): 2
Damage level (Polygonum lapathifolium): 2
Damage level (Mosla scabra): 2
Damage level (Acalypha australis): 2
Damage level (Lamium amplexicaule): 3
Damage level (Wild oats): 3

CCCC(Cl)C1NC(=O)C(C(C)=O)=C1O (stereo not shown) [Compound 40]
Damage level (Rumex dentatus): 2
Damage level [1]: 3
Damage level (Fimbristylis miliacea): 3
Damage level (Rumex japonicus): 2
Damage level (Crisium setosum): 3
Damage level [2]: 2
Damage level (Cyperus rotundus): 2
Damage level [3]: 3
Damage level (Eupatorium adenophorum): 4
Damage level [4]: 3
Damage level (Leptochloa chinensis): 4
Damage level (Commelina communis): 3
Damage level (Polygonum perfoliatum): 3
Damage level (Goose grass): 4
Damage level [5]: 3
Damage level (Erigeron annuus): 3
Damage level (Xanthium sibiricum): 2
Damage level (Polygonum lapathifolium): 2
Damage level (Mosla scabra): 2
Damage level (Acalypha australis): 3
Damage level (Lamium amplexicaule): 3
Damage level (Wild oats): 3

CCCC(C#N)C1NC(=O)C(=C(C)O)C1=O (stereo not shown) [Compound 53]
Damage level (Rumex dentatus): 2
Damage level [1]: 4
Damage level (Fimbristylis miliacea): 2
Damage level (Rumex japonicus): 3
Damage level (Crisium setosum): 4
Damage level [2]: 3
Damage level (Cyperus rotundus): 2
Damage level [3]: 4
Damage level (Eupatorium adenophorum): 4
Damage level [4]: 3
Damage level (Leptochloa chinensis): 4
Damage level (Commelina communis): 3
Damage level (Polygonum perfoliatum): 3
Damage level (Goose grass): 4
Damage level [5]: 3
Damage level (Erigeron annuus): 3
Damage level (Xanthium sibiricum): 3
Damage level (Polygonum lapathifolium): 3
Damage level (Mosla scabra): 2
Damage level (Acalypha australis): 2
Damage level (Lamium amplexicaule): 2
Damage level (Wild oats): 3
